What was measured:
[1] = system: normal human keratinocytes; experiment: Stimulation of synthesis and secretion of PG and GAG by keratinocytes (radioactive tracer incorporation); format: cell-based; conditions: for GAG secreted / A, stimulating activity on the secretion of GAG: 48 h; for A, stimulating activity on the secretion of GAG: versus untreated control
Experimental: These tracers enable the amount of PG and GAG to be measured.
There are two families of GAG which differ in their sugar chains. One is based on a sequence of glucosamines and the other is based on a sequence of galactosamines. It is for this reason that two different radioactive tracers were used, namely ^3H-D-glucosamine and ^14C-D-galactosamine, which become incorporated in the osidic chains of PG and GAG during their synthesis.
The cells are incubated for 24 h at 37° C. in a humidity-saturated atmosphere containing 5% of CO2.
(§1) The cultures are then incubated for 48 h at 37° C. in a humidity-saturated atmosphere containing 5% of CO2.
The enzyme is then inactivated by heating for 10 min in boiling water, after which the mixture is brought back to room temperature. A selective precipitation of the GAG is effected with 40 μl of cetylpyridinium chloride (CPC at 100 mg/ml, Sigma) in the presence of 40 μl of a mixture of hyaluronic acid (Fluka), dermatan sulfate (Fluka) and chondroitin sulfate (Sigma), all at 2 mg/ml (amounting to the addition of a solution containing 6 mg/ml of non-radioactive GAG). These non-radioactive GAG are added to trigger the precipitation and entrain the radioactive GAG (which on their own would not be in a sufficient amount to precipitate) into the precipitate. The precipitate obtained is washed twice with 400 μl of a solution of CPC at 10 mg/ml, and then solubilized in 500 μl of methanol (Merck). The radioactivity is finally measured by liquid scintillation with 10 ml of scintillating liquid (Packard).
It should be noted when processing the results that the GAG whose synthesis has been measured have two origins. They originate both from the synthesized and secreted GAG and from the synthesized and secreted PG (which have undergone hydrolysis with pronase for the purposes of the assay).
In order to reduce the radioactivity to a unit amount of cellular material, the cellular proteins are assayed. After removal of the culture medium and two rinses with a phosphate buffer of pH 7.2 (PBS, Gibco), the cellular tapetum in the culture wells is dissolved in 30 μl of 0.1 M NaOH at 37° C. and the plates are agitated for 30 min at 37° C. 200 μl of bicinchoninic acid/Cu^++ sulfate reagent (Sigma kit) are added to each well. The plates are incubated for 30 min at 37° C. in the dark and the proteins which it is desired to assay reduce the cupric ions (Cu^++) of the copper sulfate to cuprous ions (Cu^+). The latter and the bicinchoninic acid form chromogenic complexes absorbing at 570 nm, which is the wavelength used to measure the optical density. In parallel, a calibration series is prepared under the same experimental conditions with 0 to 100 μg/well of bovine serum albumin (BSA, Sigma) in order to translate the optical densities (OD) obtained with the cellular proteins into Stg of BSA equivalent per well.
The amounts of GAG measured will be reduced to a unit amount of protein (expressed in jig of BSA equivalent).
The stimulating activity “A” on the secretion of GAG is calculated in the form of a percentage according to the following formula: [formula]

[2] = system: normal human keratinocytes; experiment: Cytotoxicity / cell viability in keratinocyte cultures; format: cell-based; conditions: concentrations of 1.5 and 10 mM
Experimental: as §1

[3] = D-xylose 1 mM, tracer 3H-D-glucosamine
[4] = D-xylose 1 mM, tracer 14C-D-galactosamine
[5] = D-xylose 5 mM, tracer 3H-D-glucosamine
[6] = D-xylose 10 mM, tracer 3H-D-glucosamine
[7] = D-xylose 10 mM, tracer 14C-D-galactosamine

`O=C[C@H](O)[C@@H](O)[C@H](O)CO` [D-xylose] was tested, and the GAG secreted [1, 3] was 2148 ± 160 dpm/μg protein, the “A, stimulating activity on the secretion of GAG” value (“A, stimulating activity” below) [1, 3] was 55% and the GAG secreted [1, 4] was 136 ± 12 dpm/μg protein. For the same compound, the “A, stimulating activity” value [1, 4] was 34%, the GAG secreted [1, 5] was 2661 ± 202 dpm/μg protein and the “A, stimulating activity” value [1, 5] was 92%. The “A, stimulating activity” value ([1]; D-xylose 5 mM, tracer 14C-D-galactosamine) was 105%, the GAG secreted [1, 6] was 2950 ± 262 dpm/μg protein and the “A, stimulating activity” value [1, 6] was 113%. For the same compound, the GAG secreted [1, 7] was 250 ± 28 dpm/μg protein, the “A, stimulating activity” value [1, 7] was 145% and the “synthesis and extracellular secretion of PG and GAG by the keratinocytes of the human epidermis” value ([1]; irrespective of the radioactive tracer used) was “very strongly stimulates”. For the same compound, the cytotoxicity [2] was “non-cytotoxic”.

Source: US6495147B1 (LVMH Recherche, priority 1997, dated 2002)
